# Experimental data: patent US8435980B2 (AbbVie Inc., priority 2009, dated 2013)
# Molecular target: T1, Cdc7 (BEV coexpressed huCDC7/DBF4) (Homo sapiens, UniProt O00311)
# T1 construct: made in house; host or cells: BEV (baculovirus expression vector) co-expression; insect cells are implied but no cell line is named
# Experiment: Cdc7 enzyme inhibition assay ([33P]ATP, biotinylated peptide substrate, FlashPlate)
# Assay type: biochemical
# Conditions: Table 3; enzyme inhibition data (Ki)
# Method: Cdc7 (BEV coexpressed huCDC7/DBF4) is prepared internally. Cdc7 assays are conducted as follows with final concentrations as listed. […] Reactions are quenched after 1 hr by the addition of 90 μL stop buffer (50 mM EDTA, 2M NaCl). […] (Ki) for exemplary compounds.
# T1 sequence (O00311 whole entry): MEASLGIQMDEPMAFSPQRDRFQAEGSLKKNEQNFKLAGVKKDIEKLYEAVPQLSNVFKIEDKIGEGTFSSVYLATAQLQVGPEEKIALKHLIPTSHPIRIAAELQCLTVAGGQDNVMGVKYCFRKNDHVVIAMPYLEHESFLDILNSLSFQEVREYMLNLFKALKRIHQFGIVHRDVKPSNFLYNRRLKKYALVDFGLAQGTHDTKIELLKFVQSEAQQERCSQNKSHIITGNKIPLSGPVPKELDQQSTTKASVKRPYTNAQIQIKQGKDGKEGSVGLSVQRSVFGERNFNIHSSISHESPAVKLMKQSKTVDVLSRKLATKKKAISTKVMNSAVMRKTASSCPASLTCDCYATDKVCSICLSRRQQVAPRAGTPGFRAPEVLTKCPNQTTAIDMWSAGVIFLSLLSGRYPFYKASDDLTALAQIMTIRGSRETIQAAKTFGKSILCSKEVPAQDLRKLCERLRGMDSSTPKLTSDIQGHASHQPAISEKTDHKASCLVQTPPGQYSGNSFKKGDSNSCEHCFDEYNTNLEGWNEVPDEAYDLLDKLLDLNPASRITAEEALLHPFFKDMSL
# T1 sequence (Q9UBU7 whole entry partner): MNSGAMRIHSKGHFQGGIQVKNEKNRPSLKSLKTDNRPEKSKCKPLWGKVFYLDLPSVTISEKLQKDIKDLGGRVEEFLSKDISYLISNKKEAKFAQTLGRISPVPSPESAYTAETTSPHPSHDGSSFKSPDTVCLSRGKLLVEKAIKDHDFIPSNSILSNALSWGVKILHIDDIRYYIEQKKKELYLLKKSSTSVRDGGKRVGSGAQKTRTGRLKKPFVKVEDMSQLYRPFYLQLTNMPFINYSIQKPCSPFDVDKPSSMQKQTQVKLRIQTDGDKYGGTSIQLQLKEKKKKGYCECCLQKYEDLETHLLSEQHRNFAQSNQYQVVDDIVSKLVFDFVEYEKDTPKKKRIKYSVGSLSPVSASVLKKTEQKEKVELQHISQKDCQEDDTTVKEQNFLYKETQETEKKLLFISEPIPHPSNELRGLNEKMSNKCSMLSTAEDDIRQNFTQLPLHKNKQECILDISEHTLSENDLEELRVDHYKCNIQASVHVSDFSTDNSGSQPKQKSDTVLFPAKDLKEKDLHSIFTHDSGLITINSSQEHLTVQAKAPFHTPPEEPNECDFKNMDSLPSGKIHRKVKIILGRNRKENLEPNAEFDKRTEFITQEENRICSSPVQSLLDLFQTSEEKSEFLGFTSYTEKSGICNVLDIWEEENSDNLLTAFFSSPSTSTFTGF
row,Ki [nM],Compound
1,< 10,"COc1cnc2[nH]cc(-c3cc(Cl)nc(NC4CCC(C5CCNCC5)CC4)c3)c2c1 (stereo not drawn) [Example 236, 6-chloro-4-(5-methoxy-1H-pyrrolo[2,3-b]pyridin-3-yl)-N-[4-(piperidin-4-yl)cyclohexyl]pyridin-2-amine]"
2,< 10,"COc1cnc2[nH]cc(-c3cc(Cl)nc(NC4CCC(CC5CCC(N)CC5)CC4)c3)c2c1 (stereo not drawn) [Example 237, N-{4-[(4-aminocyclohexyl)methyl]cyclohexyl}-6-chloro-4-(5-methoxy-1H-pyrrolo[2,3-b]pyridin-3-yl)pyridin-2-amine]"
3,< 10,"COc1cnc2[nH]cc(-c3cc(Cl)nc(NC4CCC(CC5CCC(NC6CCCCC6)CC5)CC4)c3)c2c1 (stereo not drawn) [Example 238, 6-chloro-N-(4-{[4-(cyclohexylamino)cyclohexyl]methyl}cyclohexyl)-4-(5-methoxy-1H-pyrrolo[2,3-b]pyridin-3-yl)pyridin-2-amine]"
4,10 to 100,"Clc1cc(-c2c[nH]c3ncc(Nc4ccccc4)cc23)cc(NC2CCCCC2)n1 [Example 239, 3-[2-chloro-6-(cyclohexylamino)pyridin-4-yl]-N-phenyl-1H-pyrrolo[2,3-b]pyridin-5-amine]"
5,< 10,"COc1cnc2[nH]cc(-c3cc(Cl)nc(NC4CCC(CC5CCC(NC(=O)C6CC6)CC5)CC4)c3)c2c1 (stereo not drawn) [Example 240, N-[4-[(4-{[6-chloro-4-(5-methoxy-1H-pyrrolo[2,3-b]pyridin-3-yl)pyridin-2-yl]amino}cyclohexyl)methyl]cyclohexyl]cyclopropanecarboxamide]"
6,10 to 100,"C#CCOc1cnc2[nH]cc(-c3cc(Cl)nc(N[C@H]4CC[C@H](N)CC4)c3)c2c1 [Example 241, (trans)-N1-(6-chloro-4-(5-(prop-2-ynyloxy)-1H-pyrrolo[2,3-b]pyridin-3-yl)pyridin-2-yl)cyclohexane-1,4-diamine]"
7,< 10,"O=C(NCc1ccccn1)c1cnc2[nH]cc(-c3cc(Cl)nc(NC4CCCCC4)c3)c2c1 [Example 242, 3-[2-chloro-6-(cyclohexylamino)pyridin-4-yl]-N-(pyridin-2-ylmethyl)-1H-pyrrolo[2,3-b]pyridine-5-carboxamide]"
8,< 10,"Clc1cc(-c2c[nH]c3ncc(-c4cncnc4)cc23)cc(NC2CCCCC2)n1 [Example 243, 6-chloro-N-cyclohexyl-4-[5-(pyrimidin-5-yl)-1H-pyrrolo[2,3-b]pyridin-3-yl]pyridin-2-amine]"
9,< 10,"CCCCS(=O)(=O)N[C@H]1CC[C@H](Nc2cc(-c3c[nH]c4ncc(OC)cc34)cc(Cl)n2)CC1 [Example 244, N-(trans-4-{[6-chloro-4-(5-methoxy-1H-pyrrolo[2,3-b]pyridin-3-yl)pyridin-2-yl]amino}cyclohexyl)butane-1-sulfonamide]"
10,< 10,"Nc1ccc(-c2cnc3[nH]cc(-c4cc(Cl)nc(NC5CCCCC5)c4)c3c2)cn1 [Example 245, 4-[5-(6-aminopyridin-3-yl)-1H-pyrrolo[2,3-b]pyridin-3-yl]-6-chloro-N-cyclohexylpyridin-2-amine]"
11,< 10,"COc1cnc2[nH]cc(-c3cc(Cl)nc(N[C@H]4CC[C@H](NC(=O)CN)CC4)c3)c2c1 [Example 246, N-(trans-4-{[6-chloro-4-(5-methoxy-1H-pyrrolo[2,3-b]pyridin-3-yl)pyridin-2-yl]amino}cyclohexyl)glycinamide]"
12,< 10,"COc1ccnc2[nH]cc(-c3cc(Cl)nc(NC4CCCCC4)c3)c12 [Example 247, 6-chloro-N-cyclohexyl-4-(4-methoxy-1H-pyrrolo[2,3-b]pyridin-3-yl)pyridin-2-amine]"
13,< 10,"CCNC(=O)Nc1cnc2[nH]cc(-c3cc(Cl)nc(NC4CCCCC4)c3)c2c1 [Example 248, 1-{3-[2-chloro-6-(cyclohexylamino)pyridin-4-yl]-1H-pyrrolo[2,3-b]pyridin-5-yl}-3-ethylurea]"
14,< 10,"O=C(N[C@H]1CC[C@H](Nc2cc(-c3c[nH]c4ncccc34)cc(Cl)n2)CC1)C1CN(Cc2ccncc2)C1 [Example 249, N-(trans-4-{[6-chloro-4-(1H-pyrrolo[2,3-b]pyridin-3-yl)pyridin-2-yl]amino}cyclohexyl)-1-(pyridin-4-ylmethyl)azetidine-3-carboxamide]"
15,< 10,"O=C(N[C@H]1CC[C@H](Nc2cc(-c3c[nH]c4ncccc34)cc(Cl)n2)CC1)C1CN(C2CCNCC2)C1 [Example 250, N-(trans-4-{[6-chloro-4-(1H-pyrrolo[2,3-b]pyridin-3-yl)pyridin-2-yl]amino}cyclohexyl)-1-(piperidin-4-yl)azetidine-3-carboxamide]"
16,< 10,"COc1cnc2[nH]cc(-c3cc(Cl)nc(N[C@H]4CC[C@H](NC(=O)CNC5CCCCC5)CC4)c3)c2c1 [Example 251, N-(trans-4-{[6-chloro-4-(5-methoxy-1H-pyrrolo[2,3-b]pyridin-3-yl)pyridin-2-yl]amino}cyclohexyl)-N^2-cyclohexylglycinamide]"
17,< 10,"COc1cnc2[nH]cc(-c3cc(Cl)nc(NC4CCC(C5CCN(C6CCC6)CC5)CC4)c3)c2c1 (stereo not drawn) [Example 252, 6-chloro-N-[4-(1-cyclobutylpiperidin-4-yl)cyclohexyl]-4-(5-methoxy-1H-pyrrolo[2,3-b]pyridin-3-yl)pyridin-2-amine]"

row,Ki [nM],Compound
1,< 10,"COc1cnc2[nH]cc(-c3cc(Cl)nc(N[C@H]4CC[C@H](NS(=O)(=O)C5CCCCC5)CC4)c3)c2c1 [Example 253, N-(trans-4-{[6-chloro-4-(5-methoxy-1H-pyrrolo[2,3-b]pyridin-3-yl)pyridin-2-yl]amino}cyclohexyl)cyclohexanesulfonamide]"
2,< 10,"COc1cnc2[nH]cc(-c3cc(Cl)nc(N[C@H]4CC[C@H](NC(=O)CN5CCOCC5)CC4)c3)c2c1 [Example 254, N-(trans-4-{[6-chloro-4-(5-methoxy-1H-pyrrolo[2,3-b]pyridin-3-yl)pyridin-2-yl]amino}cyclohexyl)-2-(morpholin-4-yl)acetamide]"
3,< 10,"CC(=O)Nc1cccc(-c2cnc3[nH]cc(-c4cc(Cl)nc(NC5CCCCC5)c4)c3c2)c1 [Example 255, N-(3-{3-[2-chloro-6-(cyclohexylamino)pyridin-4-yl]-1H-pyrrolo[2,3-b]pyridin-5-yl}phenyl)acetamide]"
4,< 10,"CS(=O)(=O)Nc1cnc2[nH]cc(-c3cc(Cl)nc(NC4CCCCC4)c3)c2c1 [Example 256, N-{3-[2-chloro-6-(cyclohexylamino)pyridin-4-yl]-1H-pyrrolo[2,3-b]pyridin-5-yl}methanesulfonamide]"
5,< 10,"COc1cnc2[nH]cc(-c3cc(Cl)nc(NC4CCC(CC5CCC(NC(=O)c6cccnc6)CC5)CC4)c3)c2c1 (stereo not drawn) [Example 257, N-{4-[(4-{[6-chloro-4-(5-methoxy-1H-pyrrolo[2,3-b]pyridin-3-yl)pyridin-2-yl]amino}cyclohexyl)methyl]cyclohexyl}pyridine-3-carboxamide]"
6,< 10,"COc1cnc2[nH]cc(-c3cc(Cl)nc(N[C@H]4CC[C@H](NC(=O)CNCC(C)(C)C)CC4)c3)c2c1 [Example 258, N-(trans-4-{[6-chloro-4-(5-methoxy-1H-pyrrolo[2,3-b]pyridin-3-yl)pyridin-2-yl]amino}cyclohexyl)-N^2-(2,2-dimethylpropyl)glycinamide]"
7,< 10,"COc1cnc2[nH]cc(-c3cc(Cl)nc(NC4CCC(CC5CCC(N(C)C)CC5)CC4)c3)c2c1 (stereo not drawn) [Example 259, 6-chloro-N-(4-{[4-(dimethylamino)cyclohexyl]methyl}cyclohexyl)-4-(5-methoxy-1H-pyrrolo[2,3-b]pyridin-3-yl)pyridin-2-amine]"
8,< 10,"COc1cnc2[nH]cc(-c3cc(Cl)nc(NC4CCCC(NS(=O)(=O)C5CC5)C4)c3)c2c1 (stereo not drawn) [Example 260, N-(3-{[6-chloro-4-(5-methoxy-1H-pyrrolo[2,3-b]pyridin-3-yl)pyridin-2-yl]amino}cyclohexyl)cyclopropanesulfonamide]"
9,< 10,"COc1cnc2[nH]cc(-c3cc(Cl)nc(NC4CCCC(NC(C)=O)C4)c3)c2c1 (stereo not drawn) [Example 261, N-(3-{[6-chloro-4-(5-methoxy-1H-pyrrolo[2,3-b]pyridin-3-yl)pyridin-2-yl]amino}cyclohexyl)acetamide]"
10,< 10,"COc1cnc2[nH]cc(-c3cc(Cl)nc(NC4CCCC(NS(=O)(=O)c5cccs5)C4)c3)c2c1 (stereo not drawn) [Example 262, N-(3-{[6-chloro-4-(5-methoxy-1H-pyrrolo[2,3-b]pyridin-3-yl)pyridin-2-yl]amino}cyclohexyl)thiophene-2-sulfonamide]"
11,< 10,"COc1cnc2[nH]cc(-c3cc(Cl)nc(NC4CCCC(NC(=O)CN5CCCC5)C4)c3)c2c1 (stereo not drawn) [Example 263, N-(3-{[6-chloro-4-(5-methoxy-1H-pyrrolo[2,3-b]pyridin-3-yl)pyridin-2-yl]-amino}cyclohexyl)-2-(pyrrolidin-1-yl)acetamide]"
12,< 10,"Clc1cc(-c2c[nH]c3ncccc23)nc(NCC2CCCO2)n1 (stereo not drawn) [Example 265, 4-chloro-6-(1H-pyrrolo[2,3-b]pyridin-3-yl)-N-(tetrahydrofuran-2-ylmethyl)pyrimidin-2-amine]"
13,< 10,"Clc1cc(-c2c[nH]c3ncccc23)nc(NCc2ccncc2)n1 [Example 266, 4-chloro-N-(pyridin-4-ylmethyl)-6-(1H-pyrrolo[2,3-b]pyridin-3-yl)pyrimidin-2-amine]"
14,< 10,"Clc1cc(-c2c[nH]c3ncccc23)nc(NCc2cccnc2)n1 [Example 267, 4-chloro-N-(pyridin-3-ylmethyl)-6-(1H-pyrrolo[2,3-b]pyridin-3-yl)pyrimidin-2-amine]"
15,< 10,"Clc1cc(-c2c[nH]c3ncccc23)nc(NCc2ccccn2)n1 [Example 268, 4-chloro-N-(pyridin-2-ylmethyl)-6-(1H-pyrrolo[2,3-b]pyridin-3-yl)pyrimidin-2-amine]"
16,< 10,"CN(C)c1nc(Cl)cc(-c2c[nH]c3ncccc23)n1 [Example 269, 4-chloro-N,N-dimethyl-6-(1H-pyrrolo[2,3-b]pyridin-3-yl)pyrimidin-2-amine]"
